Reference: US8551984B2, “Aminopyrimidines as SYK inhibitors” (Merck Sharp & Dohme Corp., priority 2009, dated 2013)

The compounds below were run against recombinant human SYK (GST-hSYK fusion protein) (Homo sapiens, UniProt P43405) (assay: not given). Settings: read-out: rhSYK Activity; Table 113B.

| IC50 [nM] | Compound |
| --- | --- |
| < 100 | Cc1cc(Nc2nccc(C)n2)cc(-c2cnc(C3(O)CC(C)C(C(=O)O)CC3C)s2)c1 (stereo not drawn) [Example 113B-4] |
| < 100 | Cc1cc(Nc2nccc(C)n2)cc(-c2cnc(C3(O)CC(C)C(C(=O)O)CC3C)s2)c1 (stereo not drawn) [Example 113B-5] |
| < 100 | Cc1cc(Nc2nccc(C)n2)cc(-c2cnc(C3(O)CC(C)C(C(=O)O)CC3C)s2)c1 (stereo not drawn) [Example 113B-6] |
| < 100 | Cc1cc(Nc2nccc(C(F)(F)F)n2)cc(-c2cnc(C3(O)CC(C)C(C(=O)O)CC3C)s2)c1 (stereo not drawn) [Example 113B-13] |
| < 100 | Cc1cc(Nc2nccc(C(F)(F)F)n2)cc(-c2cnc(C3(O)CC(C)C(C(=O)O)CC3C)s2)c1 (stereo not drawn) [Example 113B-14] |
| < 100 | Cc1cc(Nc2nccc(C(F)(F)F)n2)cc(-c2cnc(C3(O)CC(C)C(C(=O)O)CC3C)s2)c1 (stereo not drawn) [Example 113B-15] |
| < 100 | Cc1cc(Nc2nccc(C(F)(F)F)n2)cc(-c2cnc(C3(O)CC(C)C(C(=O)O)CC3C)s2)c1 (stereo not drawn) [Example 113B-16] |
| < 100 | Cc1cc(Nc2nccc(C)n2)cc(-c2cnc(C3(O)CC(C)C(C(=O)O)C(C)C3)s2)c1 (stereo not drawn) [Example 113B-22] |
| < 100 | Cc1cc(Nc2nccc(C(F)(F)F)n2)cc(-c2cnc(C3(O)CC(C)C(C(=O)O)C(C)C3)s2)c1 (stereo not drawn) [Example 113B-25] |

Same assay, conditions: read-out: rhSYK Activity; Table 113D, upper part

| IC50 [nM] | Compound |
| --- | --- |
| < 100 | Cc1cc(Nc2nccc(C(F)(F)F)n2)cc(-c2cnc(C(C)(O)c3ccc(C(=O)O)cn3)s2)c1 (stereo not drawn) [Example 113D-6] |

Each compound was assayed against rhSYK (Homo sapiens, UniProt P43405) (assay: biochemical). Settings: not given.

| IC50 [nM] | Compound |
| --- | --- |
| < 100 | Cc1cc(Nc2nccc(C(F)(F)F)n2)cc(-c2cnc(C3(O)CCC(C(N)=O)C3)s2)c1 (single isomer, unassigned) [Example 119-2] |
| < 100 | Cc1cc(Nc2nccc(C)n2)cc(-c2cnc(C3(O)CCC(C(N)=O)C(C)C3)s2)c1 (single isomer, unassigned) [Example 119-5] |
| < 100 | Cc1cc(Nc2nccc(C(F)(F)F)n2)cc(-c2cnc(C3(O)CCC(C(N)=O)C(C)C3)s2)c1 (single isomer, unassigned) [Example 119-111] |
| < 100 | Cc1cc(Nc2nccc(C)n2)cc(-c2cnc(C3(O)CCC(C(N)=O)C(C)(C)C3)s2)c1 (stereo not drawn) [Example 119-7] |
| < 100 | Cc1cc(Nc2nccc(C(C)C)n2)cc(-c2cnc([C@]3(O)CC[C@@H](C(N)=O)CC3)s2)c1 [Example 119-8] |
| < 100 | Cc1cc(Nc2nccc(C(C)(C)C)n2)cc(-c2cnc(C3(O)CCC(C(N)=O)CC3)s2)c1 (stereo not drawn) [Example 119-9] |
| < 100 | Cc1cc(Nc2nccc(C(C)C)n2)cc(-c2cnc(C3(O)CCC(C(N)=O)C(C)C3)s2)c1 (stereo not drawn) [Example 119-10] |
| < 100 | Cc1cc(Nc2nccc(OCCO)n2)cc(-c2cnc(C3(O)CCC(C(N)=O)CC3)s2)c1 (stereo not drawn) [Example 119-14] |
| < 100 | CNC(=O)C1CCC(O)(c2ncc(-c3cc(C)cc(Nc4nccc(C(F)(F)F)n4)c3)s2)CC1 (stereo not drawn) [Example 119-15] |
| < 100 | Cc1cc(Nc2nccc(C(F)(F)F)n2)cc(-c2cnc([C@]3(O)CC[C@@H](C(=O)N(C)C)CC3)s2)c1 [Example 119-17] |
| < 100 | Cc1cc(Nc2nccc(C(F)(F)F)n2)cc(-c2cnc(C3(O)CCC(C(=O)NCC#N)CC3)s2)c1 (stereo not drawn) [Example 119-18] |
| < 100 | Cc1cc(Nc2nccc(C(F)(F)F)n2)cc(-c2cnc([C@]3(O)CC[C@@H](C(=O)N4CCC4)CC3)s2)c1 [Example 119-19] |
| < 100 | Cc1cc(Nc2nccc(C(F)(F)F)n2)cc(-c2cnc([C@]3(O)CC[C@@H](C(=O)NC(C)C)CC3)s2)c1 [Example 119-20] |
| < 100 | CCN(C)C(=O)[C@H]1CC[C@](O)(c2ncc(-c3cc(C)cc(Nc4nccc(C(F)(F)F)n4)c3)s2)CC1 [Example 119-21] |
| < 100 | Cc1cc(Nc2nccc(C(F)(F)F)n2)cc(-c2cnc([C@]3(O)CC[C@@H](C(=O)NCCO)CC3)s2)c1 [Example 119-22] |
| < 100 | Cc1cc(Nc2nccc(C(F)(F)F)n2)cc(-c2cnc([C@]3(O)CC[C@@H](C(=O)NCC4CC4)CC3)s2)c1 [Example 119-23] |
| < 100 | Cc1cc(Nc2nccc(C(F)(F)F)n2)cc(-c2cnc([C@]3(O)CC[C@@H](C(=O)N4CCCC4)CC3)s2)c1 [Example 119-24] |
| < 100 | COCCNC(=O)[C@H]1CC[C@](O)(c2ncc(-c3cc(C)cc(Nc4nccc(C(F)(F)F)n4)c3)s2)CC1 [Example 119-25] |

| IC50 [nM] | Compound |
| --- | --- |
| < 100 | Cc1cc(Nc2nccc(C(F)(F)F)n2)cc(-c2cnc([C@]3(O)CC[C@@H](C(=O)NCC(=O)O)CC3)s2)c1 [Example 119-26] |
| < 100 | Cc1cc(Nc2nccc(C(F)(F)F)n2)cc(-c2cnc([C@]3(O)CC[C@@H](C(=O)Nc4ncc[nH]4)CC3)s2)c1 [Example 119-27] |
| < 100 | Cc1cc(Nc2nccc(C(F)(F)F)n2)cc(-c2cnc(C3(O)CCC(C(=O)N(C)CCC#N)CC3)s2)c1 (stereo not drawn) [Example 119-28] |
| < 100 | Cc1cc(Nc2nccc(C(F)(F)F)n2)cc(-c2cnc([C@]3(O)CC[C@@H](C(=O)N4CCOCC4)CC3)s2)c1 [Example 119-29] |
| < 100 | Cc1cc(Nc2nccc(C(F)(F)F)n2)cc(-c2cnc(C3(O)CCC(C(=O)NCCC(N)=O)CC3)s2)c1 (stereo not drawn) [Example 119-30] |
| < 100 | COCCCNC(=O)[C@H]1CC[C@](O)(c2ncc(-c3cc(C)cc(Nc4nccc(C(F)(F)F)n4)c3)s2)CC1 [Example 119-31] |
| < 100 | Cc1cc(Nc2nccc(C(F)(F)F)n2)cc(-c2cnc(C3(O)CCC(C(=O)NCC(O)CO)CC3)s2)c1 (stereo not drawn) [Example 119-32] |
| < 100 | Cc1cc(Nc2nccc(C(F)(F)F)n2)cc(-c2cnc(C3(O)CCC(C(=O)Nc4ccncc4)CC3)s2)c1 (stereo not drawn) [Example 119-34] |
| < 100 | Cc1cc(Nc2nccc(C(F)(F)F)n2)cc(-c2cnc([C@]3(O)CC[C@@H](C(=O)Nc4ccccn4)CC3)s2)c1 [Example 119-35] |
| < 100 | Cc1cc(Nc2nccc(C(F)(F)F)n2)cc(-c2cnc([C@]3(O)CC[C@@H](C(=O)Nc4cccnc4)CC3)s2)c1 [Example 119-36] |
| < 100 | Cc1cc(Nc2nccc(C(F)(F)F)n2)cc(-c2cnc(C3(O)CCC(C(=O)N4CCC(C#N)C4)CC3)s2)c1 (stereo not drawn) [Example 119-37] |
| < 100 | Cc1cc(Nc2nccc(C(F)(F)F)n2)cc(-c2cnc(C3(O)CCC(C(=O)NCc4cc[nH]n4)CC3)s2)c1 (stereo not drawn) [Example 119-39] |
| < 100 | CCN(CCC#N)C(=O)C1CCC(O)(c2ncc(-c3cc(C)cc(Nc4nccc(C(F)(F)F)n4)c3)s2)CC1 (stereo not drawn) [Example 119-40] |
| < 100 | Cc1cc(Nc2nccc(C(F)(F)F)n2)cc(-c2cnc(C3(O)CCC(C(=O)NCc4cocn4)CC3)s2)c1 (stereo not drawn) [Example 119-42] |
| < 100 | Cc1cc(Nc2nccc(C(F)(F)F)n2)cc(-c2cnc(C3(O)CCC(C(=O)NC4CCCCC4)CC3)s2)c1 (stereo not drawn) [Example 119-44] |
| < 100 | Cc1cc(Nc2nccc(C(F)(F)F)n2)cc(-c2cnc([C@]3(O)CC[C@@H](C(=O)N4CCN(C)CC4)CC3)s2)c1 [Example 119-46] |
| < 100 | Cc1cc(Nc2nccc(C(F)(F)F)n2)cc(-c2cnc([C@]3(O)CC[C@@H](C(=O)N4CCC(O)CC4)CC3)s2)c1 [Example 119-47] |
| < 100 | CC(=O)NCCNC(=O)[C@H]1CC[C@](O)(c2ncc(-c3cc(C)cc(Nc4nccc(C(F)(F)F)n4)c3)s2)CC1 [Example 119-49] |

The next lines start with the compound.

| Compound | IC50 [nM] |
| --- | --- |
| Cc1cc(Nc2nccc(C(F)(F)F)n2)cc(-c2cnc(C(C)(O)c3ccc(C(N)=O)cc3)s2)c1 (single isomer, unassigned) [Example 117-20] | < 100 |
| Cc1cc(Nc2ncc(F)c(C)n2)cc(-c2cnc(C3(O)CCC4(CC3)OCCO4)s2)c1 [Example 116B-1] | < 100 |
| Cc1cc(Nc2ncc(Cl)c(C)n2)cc(-c2cnc(C3(O)CCC4(CC3)OCCO4)s2)c1 [Example 116B-2] | < 100 |
| Cc1cc(Nc2nccc(C(F)(F)F)n2)cc(-c2cnc(C3(O)CC(C(N)=O)C3)s2)c1 (stereo not drawn) [Example 117-1] | < 100 |
| Cc1cc(Nc2nccc(C)n2)cc(-c2cnc(C3(O)CCC(C(N)=O)C4CCCCC43)s2)c1 (stereo not drawn) [Example 117-2] | < 100 |
| Cc1cc(Nc2nccc(C(F)(F)F)n2)cc(-c2cnc([C@H]3CC[C@@H](C(N)=O)CC3)s2)c1 [Example 117-4] | < 100 |
| Cc1cc(Nc2nccc(C(F)(F)F)n2)cc(-c2cnc([C@H]3CC[C@H](C(N)=O)CC3)s2)c1 [Example 117-5] | < 100 |
| Cc1cc(Nc2nccc(C(F)(F)F)n2)cc(-c2cnc(C3(O)CCN(c4ncccc4C(N)=O)CC3)s2)c1 [Example 117-6] | < 100 |
| Cc1cc(Nc2nccc(C(F)(F)F)n2)cc(-c2cnc(C3(O)CCN(CCCC(N)=O)CC3)s2)c1 [Example 117-7] | < 100 |
| Cc1cc(Nc2nccc(C(F)(F)F)n2)cc(-c2cnc(C3(O)CCC(CC(N)=O)CC3)s2)c1 (stereo not drawn) [Example 117-8] | < 100 |
| Cc1cc(Nc2nccc(C(F)(F)F)n2)cc(-c2cnc([C@]3(O)CC[C@@H](CCC(N)=O)CC3)s2)c1 [Example 117-11] | < 100 |
| Cc1cc(Nc2nccc(C(F)(F)F)n2)cc(-c2cnc([C@]3(O)CC[C@H](CCC(N)=O)CC3)s2)c1 [Example 117-12] | < 100 |
| Cc1cc(Nc2nccc(C(C)C)n2)cc(-c2cnc(C3(O)CCCN(C(=O)CC(N)=O)CC3)s2)c1 (stereo not drawn) [Example 117-13] | < 100 |
| Cc1cc(Nc2nccc(OCCO)n2)cc(-c2cnc(CCC(N)=O)s2)c1 [Example 117-14] | < 100 |
| CCC(CO)NC(=O)CCc1ncc(-c2cc(C)cc(Nc3nccc(C(F)(F)F)n3)c2)s1 (stereo not drawn) [Example 117-15] | < 100 |
| CCOC(=O)CNC(=O)CCc1ncc(-c2cc(C)cc(Nc3nccc(C(F)(F)F)n3)c2)s1 [Example 117-16] | < 100 |
| COC(=O)C(C)NC(=O)CCc1ncc(-c2cc(C)cc(Nc3nccc(C(F)(F)F)n3)c2)s1 (stereo not drawn) [Example 117-17] | < 100 |
| COC(=O)CCNC(=O)CCc1ncc(-c2cc(C)cc(Nc3nccc(C(F)(F)F)n3)c2)s1 [Example 117-18] | < 100 |
| COC(=O)C(CC(C)C)NC(=O)CCc1ncc(-c2cc(C)cc(Nc3nccc(C(F)(F)F)n3)c2)s1 (stereo not drawn) [Example 117-19] | 100 to 1000 |
| Cc1cc(Nc2nccc(C(F)(F)F)n2)cc(-c2cnc([C@@]3(O)CC[C@H](C(N)=O)C(C)(C)C3)s2)c1Br [Example 117-22] | < 100 |
